# Patent US20110112195A1 (priority 2004, published 2011)
# Read-outs that look alike come from different tables or passages of the source.
# Legend:
# SARS-CoV [1] = assay: microbe, parasite or virus in culture; type: cell-based
# in vitro = settings: African green monkey
# [2] = test system: adenovirus type 5 expressing EGFP; type: cell-based
# Ebola = type: cell-based
# West Nile Virus = type: cell-based
# [3] = molecular target: H1L phosphatase (GST-H1L fusion protein) (Vaccinia virus, UniProt P07239); assay: biochemical
# Adenovirus = type: cell-based
# vaccinia virus (WR) [4] = type: cell-based
# SARS-CoV [5] = type: cell-based
# vaccinia virus (WR) [6] = type: cell-based; remark: listed apart in the source
# SARS-CoV [7] = settings: cited from earlier work
molecule,measurement,setting,value
"O=C(O)C1=CC(=C(c2ccc(O)c(C(=O)O)c2)c2ccc(O)c(C(=O)O)c2)C=CC1=O [ATA, aurintricarboxylic acid]",inhibition of virus replication compared to untreated controls,SARS-CoV [1],≤ 1000 fold
same,viral replication level lower than control,SARS-CoV [1],10 times
same,EC50,"SARS-CoV [1]; Severe acute respiratory syndrome coronavirus, Vero",0.2 mg/mL
same,CC50,in vitro,37.5 mg/mL
same,inhibition of EGFP expression by adenovirus,[2],No significant inhibition
same,effect on Ebola,Ebola,no effect
same,inhibition of West Nile Virus,West Nile Virus,10000 fold
same,IC50,[3],16 µM
same,toxicity associated with treatment,Vero cells,little toxicity
same,effect on Adenovirus,Adenovirus,no effect
same,plaque count (peak viral load),vaccinia virus (WR) [4],616 pfu/mL
same,viral count in treated sample as share of untreated control,vaccinia virus (WR) [4],0.00026%
same,inhibition of virus RNA replication,SARS-CoV [5],"more than 1,000 fold"
same,potency of ATA relative to interferon α as anti-SARS-CoV agent,SARS-CoV [5],about 10 times
same,potency of ATA relative to interferon β as anti-SARS-CoV agent,SARS-CoV [5],~100 times
same,lowest drug concentration at which block in vaccinia replication was evident,vaccinia virus (WR) [6],25 µg/mL
CC1(C)[C@@H](O[C@H]2O[C@H](C(=O)O)[C@@H](O)[C@H](O)[C@H]2O[C@@H]2O[C@H](C(=O)O)[C@@H](O)[C@H](O)[C@H]2O)CC[C@]2(C)[C@H]3C(=O)C=C4[C@@H]5C[C@@](C)(C(=O)O)CC[C@]5(C)CC[C@@]4(C)[C@]3(C)CC[C@@H]12 [glycyrrhizin],inhibition effect on SARS-CoV replication (logs),SARS-CoV [7],two logs or less
Cc1c(O)cccc1C(=O)N[C@@H](CSc1ccccc1)[C@H](O)CN1C[C@H]2CCCC[C@H]2C[C@H]1C(=O)NC(C)(C)C [nelfinavir],inhibition effect on SARS-CoV replication (logs),SARS-CoV [7],two logs or less
NC(=O)c1ncn([C@@H]2O[C@H](CO)[C@@H](O)[C@H]2O)n1 [ribavarin],effect against SARS-CoV replication,SARS-CoV [7],little effect
IFNα,EC50,SARS-CoV [1],500 IU/ml
same,CC50,Vero cells,15000 IU/ml
same,inhibition effect with pre-treatment compared with samples without pre-treatment,SARS-CoV [5],about the same
same,inhibition of virus RNA replication,SARS-CoV [5],100 fold
